Source: publication PMC4544630, “Contribution of C-glucosidic ellagitannins to Lythrum salicaria L. influence on pro-inflammatory functions of human neutrophils” (Journal of Natural Medicines, 2014)

Assays:
[1] = system: ethanol-induced gastric lesions; design: method as in PMID 12590500; settings: mouse; orally 50 mg/kg b.w.; cited from earlier work
[2] = target: T1, bovine testis hyaluronidase (Bos taurus, UniProt Q2YDK3); test: Hyaluronidase activity, USP turbidimetric method modified; assay type: biochemical; settings: for Hyaluronidase activity Mean(%): % of 100% active enzyme control
T1 construct: purchased Sigma–Aldrich GmbH (Steinheim, Germany); host or cells: bovine testis
T1 sequence (Q2YDK3 36-553): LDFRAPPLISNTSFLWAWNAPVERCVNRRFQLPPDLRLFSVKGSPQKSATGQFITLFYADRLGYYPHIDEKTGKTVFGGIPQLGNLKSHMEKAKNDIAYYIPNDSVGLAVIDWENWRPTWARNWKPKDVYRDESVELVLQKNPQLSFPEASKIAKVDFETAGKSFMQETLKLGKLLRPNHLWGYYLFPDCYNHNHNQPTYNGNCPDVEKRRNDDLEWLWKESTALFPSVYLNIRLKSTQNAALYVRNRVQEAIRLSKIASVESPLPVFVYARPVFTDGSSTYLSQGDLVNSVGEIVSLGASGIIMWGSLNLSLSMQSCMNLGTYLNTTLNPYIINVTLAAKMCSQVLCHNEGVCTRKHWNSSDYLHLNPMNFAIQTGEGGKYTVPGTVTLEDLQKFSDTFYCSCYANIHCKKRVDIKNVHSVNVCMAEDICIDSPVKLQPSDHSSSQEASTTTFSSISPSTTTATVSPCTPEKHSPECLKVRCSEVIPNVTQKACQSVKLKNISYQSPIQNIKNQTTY
From the text: The […] flowering herb was collected from its natural habitat in Umer in the Świętokrzyskie region (Poland) in July 2011. Its identity was confirmed anatomically and morphologically based on its pharmacopoeial monograph in the Department of Pharmacognosy and Molecular Basis of Phytotherapy, Medical University of Warsaw, where the voucher specimen UMER2011 is deposited. […] […]), castalagin ([…] (SB) and […]. 1, 2) from […] performed according to Piwowarski and Kiss. […] Isolated ellagitannins were of >95 % purity (determined by the HPLC-DAD-CAD method). […] Gallic acid (>96 % purity) was purchased from ChromaDex (Santa Ana, USA). Propidium iodide was purchased from BD Biosciences (San Diego, CA, USA). All substances used were of >95 % purity. Phosphate-buffered saline (PBS) was purchased from Gibco (Carlsbad, CA, USA). The influence of extract and ellagitannins on hyaluronidase activity was measured using the USP turbidimetric method modified by Piwowarski et al. […] Heparin was used as a positive control.

IL-8 = IL-8 production by LPS-stimulated neutrophils (ELISA); assay type: cell-based, human; settings: LPS 100 ng/mL, 24 h, % of stimulated control
From the text: (§1) Peripheral venous blood was taken from healthy human donors (20–35 years old) in the Warsaw Blood Donation Centre. […] The study conformed to the principles of the Declaration of Helsinki. Neutrophils were isolated using a standard method of dextran sedimentation prior to hypotonic lysis of erythrocytes and to centrifugation in a Ficoll Hypaque gradient. The purity of neutrophil preparations was >97 %, and viability measured by trypan blue exclusion was >98 %. Neutrophils were then resuspended in appropriate medium to perform the selected assay.
(§2) Neutrophils (2 × 10^5/mL) were cultured in 24-well plates in RPMI 1640 medium with 10 % FBS, 10 mM HEPES, and 2 mM L-glutamine in the absence or presence of LPS (100 ng/mL) for 24 h at 37 °C with 5 % CO2 in the absence or presence of extract at concentrations of 1, 5 and 20 μg/mL, and compounds at concentrations of 1, 5 and 20 μM were added to 1 mL of cell suspension 1 h before the stimuli. After 24 h, the neutrophils were harvested and centrifuged (2000 RPM; 10 min; 4 °C). The amount of IL-8 or MMP-9 released into cell supernatants was measured by enzyme-linked immunosorbent assay (ELISA) following the manufacturer’s instructions (R&D Systems, Minneapolis, MN, USA). PBS was used as a non-stimulated control. Curcumin was used as a positive control, according to Aggarwal and Harikumar and Antoine et al..

MPO = MPO release from cytochalasin A/f-MLP-stimulated neutrophils (TMB substrate); assay type: cell-based, human; settings: for MPO release Mean(%): cytochalasin A/f-MLP, % of stimulated control; for activity on MPO release: all tested concentrations (1, 5, 20 μM)
From the text: Peripheral venous blood was taken from healthy human donors (20-35 years old) in the Warsaw Blood Donation Centre. […] The study conformed to the principles of the Declaration of Helsinki. Neutrophils were isolated using a standard method of dextran sedimentation prior to hypotonic lysis of erythrocytes and to centrifugation in a Ficoll Hypaque gradient. The purity of neutrophil preparations was >97 %, and viability measured by trypan blue exclusion was >98 %. Neutrophils were then resuspended in appropriate medium to perform the selected assay. Neutrophil MPO release was determined using TMB as a substrate. […] After centrifugation (2000 rpm; 10 min; 4 °C), 100 μL of supernatant was incubated with 50 μL of the TMB liquid substrate system. The reaction was terminated after 20 min by the addition of 2 M hydrochloric acid. The absorbance was measured at […] using a microplate reader (BioTek). Gallic acid was used as a positive control, according to Kroes et al..

ROS [3] = test: ROS release from PMA-stimulated neutrophils, lucigenin chemiluminescence; assay type: cell-based, human; settings: PMA + lucygenin, % of stimulated control
From the text: as §1
(§3) Generation of oxidants by f-MLP or PMA-stimulated neutrophils was measured using luminol- or lucigenin-dependent chemiluminescence tests. 70 μL of cell suspension (2 × 10^5/mL) in HBSS was incubated with 50 μL of compound or extract solution (final concentrations of 1, 5 and 20 μM or μg/mL) together with 50 μL of luminol (100 μM) or lucigenin (200 μM) solution. ROS production was initiated by the addition of 30 μL of f-MLP (0.1 μg/mL) or PMA (1 μg/mL). Changes in chemiluminescence at 37 °C were measured immediately for 45 min at intervals of 2 min in a microplate reader (Biotek). Ascorbic acid was used as a positive control.

ROS [4] = test: ROS release from f-MLP-stimulated neutrophils, luminol chemiluminescence; assay type: cell-based, human; settings: % of stimulated control
From the text: as §1, §3

elastase = test: Elastase release from cytochalasin A/f-MLP-stimulated neutrophils (SAAVNA substrate); assay type: cell-based, human; settings: for Elastase release Mean(%): % of stimulated control; for activity on elastase release: tested concentrations (1, 5, 20 μM)
From the text: as §1
Neutrophil elastase release was determined using SAAVNA as a substrate, and […] was measured spectrophotometrically. 100 μL of cell suspension (5 × 10^5/mL) in HBSS was preincubated with 50 μL of compound or extract solution (final concentrations of 1, 5 and 20 μM or μg/mL) for 15 min at 37 °C and then stimulated with 50 μL of cytochalasin A (5 μg/mL) and f-MLP (0.1 μg/mL) for 15 min. The neutrophils were centrifuged (2000 rpm; 10 min; 4 °C). After the addition of 50 μL of SAAVNA solution (1.6 mg/mL) to 100 μL of supernatant, the extent of […] was measured spectrophotometrically for 1 h at intervals of 20 min, at 412 nm using a microplate reader (BioTek). According to Kanashiro et al., quercetin was used as a positive control.

MMP-9 = MMP-9 production by LPS-stimulated neutrophils (ELISA); assay type: cell-based, human; settings: LPS 100 ng/mL, 24 h, % of stimulated control
From the text: as §1, §2

| IC50 [2] | Hyaluronidase activity Mean(%) ([2]; 1 μM) | Hyaluronidase activity Mean(%) ([2]; 2 μM) | Hyaluronidase activity Mean(%) ([2]; 5 μM) | Hyaluronidase activity Mean(%) ([2]; 20 μM) | Structure (SMILES) | IL-8 production Mean (%) (IL-8; 1 μM) | IL-8 production Mean (%) (IL-8; 5 μM) | IL-8 production Mean (%) (IL-8; 20 μM) | MPO release Mean(%) (MPO; 1 μM) | MPO release Mean(%) (MPO; 5 μM) | MPO release Mean(%) (MPO; 20 μM) | ROS release Mean(%) (ROS [3]; 1 μM) | ROS release Mean(%) (ROS [3]; 5 μM) | ROS release Mean(%) (ROS [3]; 20 μM) | ROS release Mean(%) (ROS [4]; 1 μM) | ROS release Mean(%) (ROS [4]; 5 μM) | ROS release Mean(%) (ROS [4]; 20 μM) | Elastase release Mean(%) (elastase; 1 μM) | Elastase release Mean(%) (elastase; 5 μM) | Elastase release Mean(%) (elastase; 20 μM) | also measured |
| --- | --- | --- | --- | --- | --- | --- | --- | --- | --- | --- | --- | --- | --- | --- | --- | --- | --- | --- | --- | --- | --- |
| 3.1 ± 0.2 µM | 87,07% | 73,08% | 19,92% | 3,13% | O=C1OC[C@H]2OC(=O)c3cc(O)c(O)c(O)c3-c3c(O)c(O)c(O)c4c3C(=O)O[C@H]([C@H]3OC(=O)c5c-4c(O)c(O)c(O)c5[C@H]3O)[C@@H]2OC(=O)c2cc(O)c(O)c(O)c2-c2c1cc(O)c(O)c2O [C, castalagin] | 92,43% | 75,24% | 70,24% | 75,53% | 56,44% | 29,85% | 79,28% | 60,48% | 37,00% | 62,41% | 40,10% | 29,55% | 96,55% | 102,40% | 105,22% | reduction of ethanol-induced gastric lesions [1]: very potent in the reduction of ethanol-induced gastric lesions; activity on MPO release (MPO): expressed inhibitory activity at all tested concentrations; activity on elastase release (elastase): completely inactive; MMP-9 production Mean (%) (MMP-9; 1 μM): 92,70%; MMP-9 production Mean (%) (MMP-9; 5 μM): 88,18%; MMP-9 production Mean (%) (MMP-9; 20 μM): 96,42% |
| 2.5 ± 0.2 µM | 81,82% | 57,68% | 8,00% | 0,50% | O=C(OC1COC(=O)c2cc(O)c(O)c(O)c2-c2c(cc(O)c(O)c2O)C(=O)OC1C1OC(=O)c2cc(O)c(O)c(O)c2-c2c(O)c(O)c(O)c3c2C(=O)OC1C3O)c1cc(O)c(O)c(O)c1Oc1cc2c(c(O)c1O)-c1c(cc(O)c(O)c1O)C(=O)OCC1OC(=O)c3cc(O)c(O)c(O)c3-c3c(O)c(O)c(O)c4c3C(=O)OC(C1OC2=O)C1OC(=O)c2c-4c(O)c(O)c(O)c2C1O (centres unmarked) [SC, salicarinin C] | 77,70% | 78,29% | 56,68% | 66,67% | 52,85% | 5,95% | 66,62% | 34,56% | 7,37% | 63,16% | 34,71% | 18,92% | 85,10% | 80,91% | 50,60% | MMP-9 production Mean (%) (MMP-9; 1 μM): 97,74%; MMP-9 production Mean (%) (MMP-9; 5 μM): 92,17%; MMP-9 production Mean (%) (MMP-9; 20 μM): 86,61% |
| 3.1 ± 0.2 µM | 88,10% | 68,10% | 18,39% | 5,10% | O=C1OCC2OC(=O)c3cc(O)c(O)c(O)c3-c3c(O)c(O)c(O)c4c3C(=O)OC(C2OC(=O)c2cc(O)c(O)c(O)c2-c2c1cc(O)c(O)c2O)C1OC(=O)c2c-4c(O)c(O)c(O)c2C1O (centres unmarked) [V, vescalagin] | 98,64% | 80,63% | 71,68% | 81,67% | 65,70% | 41,17% | 66,84% | 50,90% | 28,93% | 63,47% | 46,61% | 30,13% | 102,25% | 104,61% | 102,89% | activity on MPO release (MPO): expressed inhibitory activity at all tested concentrations; activity on elastase release (elastase): completely inactive; MMP-9 production Mean (%) (MMP-9; 1 μM): 85,96%; MMP-9 production Mean (%) (MMP-9; 5 μM): 99,57%; MMP-9 production Mean (%) (MMP-9; 20 μM): 89,91% |
